Results as given in patent publication US20050143472A1, “Novel treatment for pathologies associated with oxidative damage” (priority 2002, published 2005).
“Also recorded” adds a separate entry of the source. Read-outs that look alike come from different tables or passages of the source.

What was measured:
mPAO [1] = target: T1, mPAO (Mus musculus, UniProt Q8C0L6); test: Oxygraph assay of O2 consumption, progress-curve analysis; type: biochemical, murine; conditions: progress curves before and after catalase addition
T1 construct: the full length cDNA of mpao was released by Nde I and Hind III treatment, and ligated into Nde I and Hind III sites of pET29c; made in house; host or cells: E. coli BL21 GOLD (DE3), plasmid pET-MPAO (pET29c)
T1 sequence (Q8C0L6 whole entry E184K/L285S/R416L/R417S/Q419R/E451A/V490I/S491G/V497A): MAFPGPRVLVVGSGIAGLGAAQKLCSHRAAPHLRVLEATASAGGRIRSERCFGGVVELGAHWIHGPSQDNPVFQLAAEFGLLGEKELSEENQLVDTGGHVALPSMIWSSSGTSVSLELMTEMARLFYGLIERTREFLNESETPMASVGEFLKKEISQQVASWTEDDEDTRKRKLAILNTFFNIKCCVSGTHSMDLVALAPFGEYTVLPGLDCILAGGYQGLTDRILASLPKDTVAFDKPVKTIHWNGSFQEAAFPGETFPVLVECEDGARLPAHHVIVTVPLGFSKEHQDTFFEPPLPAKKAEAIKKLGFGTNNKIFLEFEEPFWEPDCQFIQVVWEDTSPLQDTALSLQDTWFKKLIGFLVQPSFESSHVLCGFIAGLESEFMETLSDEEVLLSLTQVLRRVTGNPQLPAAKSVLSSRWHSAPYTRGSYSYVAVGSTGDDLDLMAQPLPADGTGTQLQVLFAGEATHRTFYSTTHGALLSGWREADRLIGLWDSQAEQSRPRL
Method: Some assays (oxygraph assays) were carried out by directly monitoring O2 consumption in air-saturated buffer ([O2]=0.237 mM) or buffer saturated with pure O2 at 30° C. ([O2]=1.12 mM). The depletion of O2 was detected with a Yellow Springs Instruments, Inc. Model 53 Oxygen Monitor equipped with a Clark electrode. […] Following a published procedure (Goudar et al., Biochim. Biophys. Acta 1429:377-383 [1999]), the data were fitted to the integrated Mechaelis-Menton equation. The analyses were done using Maple VI (Windows 2000) software (Waterloo Maple, Inc.) running on a PC computer. […] Inhibition by the H2O2, formed as a product of polyamine oxidation by mPAO, was assessed by addition of 2 μL of a 30 mg/mL (30,000 units/mg) solution of catalase, after [O2] reached zero.
The catalase immediately converted each mole of H2O2 to 0.5 mol of O2 (since [O2]=1.12 mM for pure O2-saturated buffer, then [O2]=0.56 mM immediately after catalase addition). In the presence of catalase, O2 depletion should occur at 0.5× the rate as it does in the absence of catalase (unless H2O2 inhibition is operating). With catalase present, each molecule of O2 will be converted eventually to H2O (4-electron equivalents), rather than to H2O2 (2-electron equivalents).

mPAO [2] = target: T1, mPAO; test: Steady-state kinetic spectrophotometric assay of mPAO (H2O2 formation); type: biochemical, murine; conditions: for kcat′ / KS′: apparent value; for kcat′: air-saturated 50 mM KH2PO4/KOH buffer pH 7.6, [O2] 237 μM; for inhibitor of mPAO (oxidation of N^1-acetyl-Spm) / substrate for mPAO (oxidation by mPAO): in words; for kcat′/KS′: specificity constant, air-saturated buffer pH 7.6; for KS′: air-saturated buffer pH 7.6, [O2] 237 μM
Method: In this example the methods used to examine mPAO steady state kinetics are described. Spectrophotometric assays were done at 30° C. in a potassium phosphate buffer (e.g., 50 mM KH2PO4/KOH buffer, pH 7.6 saturated in air or in pure oxygen), using a published procedure which provides a continuous monitor of the H2O2 produced (Holt et al., Anal. Biochem. 244:384-392 [1997]). These assays were done in 1 mL cuvette with 0.8 mL of solution containing varying amounts of substrate, 1 mM vanillic acid, 0.5 mM 4-aminopyrine, 4 units of horseradish peroxidase, and 0.1-0.2 μg of mPAO. The reactions were monitored at 498 nm with a UVIKON 840 spectrophotometer (KONTRON Instruments) for the formation of the quinoneimine dye (ε498=4,650 M^−1cm^−1 at pH 7.6), the condensation product of vanillic acid and oxidized 4-aminopyrine. The latter is produced from 4-aminopyrine by the action of horseradish peroxidase that has been oxidized by H2O2 (Holt et al., supra [1997]). The assays were done at 25° C. by varying the concentration of the amine substrate, while the oxygen concentration in the assay solution was constant at the air-saturating level of 237 μM. The data were fit, by nonlinear regression to steady-state kinetic equations (McIntire et al., Biochem. J. 228:325-335 [1985]), which provided the values, and standard deviations thereof, for kcat′, KS′ and kcat′/KS′ (=Q, the specificity constant). [formula]
The dissociation constants, KD, for these and other amines were estimated in the following manner. It was assumed that the competition was competitive, since in the presence of the inhibitors, at a saturating N^1-acetyl-Spm concentration, the rate of the reaction was equal to the value of the true kcat. It was also assumed that the mechanism is of the ping-pong type. Thus, the applicable steady-state equation is (Segal, Enzyme Kinetics, John Wiley & Sons, New York, pp. 606-625 [1975]): [formula]
On the left, kcat and KS are the steady-state parameters for N^1-acetyl-Spm (S), and I and KI (=KD), represent the inhibitor and its inhibition constant, respectively. KIO and KO are the inhibition constant and Michaelis constant for O2, respectively. The equation can be converted to the expression on the right side when: [formula]
The expressions for kcat′ and KS′ (at the fixed [O2]=[…]) are the same as those when the inhibitor is absent. Since the values of kcat′ and KS″ were predetermined, inhibition assays were carried out where [S]≈KS″, which, in the absence of I, would give a rate, ν≈0.5×kcat″. In these assay, for each inhibitor, [I] was adjusted so the apparent rate was somewhat less then 0.5 kcat′. In this situation, after substitution and rearrangement, Equation 1 reduces to: [formula]
Since [I] and kcat′ are known, and ν is the measured rate in the presence of the inhibitor, the value of KI′ can be estimated. It is assumed that these apparent KI′ are good approximations of the true KI (=KD) values. […] The estimated KI′ values provided in Table 1, are the averages of these four values. If the reactions of the polyamine substrates and O2 with mPAO obeys a ping-pong type mechanism, the apparent values, kcat′/KS′, are equal to the true kcat/KS values.

[3] = apparent, inhibition of N^1-acetyl-Spm oxidation, average of four inhibitor concentrations, read-out: KI′ = KD

SMILES | kcat′ (mPAO [2]) | Ki (mPAO [2]; [3]) | inhibitor of mPAO (oxidation of N^1-acetyl-Spm) (mPAO [2]) | substrate for mPAO (oxidation by mPAO) (mPAO [2]; listed as N-(3-Aminopropyl)-1,10-diaminodecane) | substrate for mPAO (oxidation by mPAO) (mPAO [2]; listed as N-(3-aminopropyl)-1,10-diaminodecane) | kcat′/KS′ (mPAO [2]) | KS′ (mPAO [2]) | KI′ = KD (mPAO [2]; apparent, inhibition of N^1-acetyl-Spm oxidation, average of four inhibitor concentrations) | inhibition of mPAO by product H2O2 (mPAO [1]) | substrate for mPAO (oxidation by mPAO) (mPAO [2]) | Ki (mPAO [2])
OO [H2O2, hydrogen peroxide] | – | – | – | – | – | – | – | – | inhibition does not occur | – | –
CCNCCCNCCCCNCCCNCC [N^1,N^12-diethyl-Spm, N^1,N^12-bis[ethyl]spermine] | 0.415 ± 0.012 s⁻¹ | – | – | – | – | (2.77 ± 0.13) × 10^3 M^−1sec^−1 | 150 ± 10 µM | – | – | very good substrates | –
NCCCCN [Put, putrescine] | 0 s⁻¹ | 1000 µM | inhibitors | – | – | 0 M⁻¹ s⁻¹ | 0 µM | – | – | – | –
NCCCCNCCCN [Spd, spermidine] | 0 s⁻¹ | 190 µM | inhibitors | – | – | 0 M⁻¹ s⁻¹ | 0 µM | – | – | poor substrates for mPAO | –
NCc1ccccc1 [benzylamine] | 0 s⁻¹ | – | not | – | – | 0 M⁻¹ s⁻¹ | 0 µM | ∞ (infinity) | – | – | –
N=C(N)NCCCCCCCCCCNC(=N)N [synthalin, 1,10-bisguanidinodecane] | 0 s⁻¹ | – | extremely potent inhibitor of mPAO | – | – | 0 M⁻¹ s⁻¹ | 0 µM | – | – | – | 0.05 µM

Continued, in another order:

kcat′ (mPAO [2]) | Ki (mPAO [2]; [3]) | inhibitor of mPAO (oxidation of N^1-acetyl-Spm) (mPAO [2]) | substrate for mPAO (oxidation by mPAO) (mPAO [2]; listed as N-(3-Aminopropyl)-1,10-diaminodecane) | substrate for mPAO (oxidation by mPAO) (mPAO [2]; listed as N-(3-aminopropyl)-1,10-diaminodecane) | kcat′/KS′ (mPAO [2]) | KS′ (mPAO [2]) | KI′ = KD (mPAO [2]; apparent, inhibition of N^1-acetyl-Spm oxidation, average of four inhibitor concentrations) | SMILES | inhibition of mPAO by product H2O2 (mPAO [1]) | substrate for mPAO (oxidation by mPAO) (mPAO [2]) | Ki (mPAO [2])
0 s⁻¹ | 35 µM | good inhibitor of mPAO | not oxidized by mPAO | not to be a PAO substrate | 0 M⁻¹ s⁻¹ | – | – | NCCCCCCCCCCNCCCN [N-(3-aminopropyl) 1,10 decanediamine, N-(3-Aminopropyl)-1,10-diaminodecane] | – | – | –
1.93 ± 0.03 s⁻¹ | – | – | – | – | (1.27 ± 0.03) × 10^4 M^−1sec^−1 | 157 ± 7 µM | – | CCNCCCNCCCNCCCNCC [N^1,N^11-diethyl-nor-Spm, N^1,N^11-bis[ethyl]norspermine] | – | very good substrates | –
0 s⁻¹ | 70 µM | – | – | – | 0 M⁻¹ s⁻¹ | 0 µM | – | CC(=O)NCCCCNCCCN [N^8-acetyl-Spd] | – | not oxidized by mPAO | –
– | 750 µM | inhibitors | – | – | – | 716 ± 33 µM | – | NCCCNCCCCNCCCN [Spm, spermine] | – | poor mPAO substrate; also recorded: poor substrates for mPAO | –
